# Target: T1, recombinant human cGAS (aa147-522) (Homo sapiens, UniProt Q8N884)
# T1 construct: recombinant human cGAS (aa147-522); His6-SUMO (cleaved yes); made in house; host or cells: E. coli BL21/pLys
# Experiment: In vitro inhibition assay of cGAS activity (ATP consumption, KinaseGlo Max)
# Type: biochemical
# Details: Table 2, read-out: cGAS Inhibition Results IC50
# Description: Expression and Purification of Recombinant cGAS Protein: cDNA encoding full-length or amino acids […] of human cGAS was inserted into a modified pET28a vector containing an in-frame His6-SUMO tag. The E. coli strain BL21/pLys harboring the plasmid was induced with 0.5 mM IPTG at 18° C. overnight. His6-SUMO tag was removed by a SUMO protease digestion following purification of the His6-SUMO-cGAS as described previously (Sun et al, 2013, Science 339, 786).
# In vitro inhibition assay of cGAS activity: A 60 μL mixture containing 20 mM Tris-Cl, pH 7.5, 5 mM MgCl2, 0.2 mg/mL BSA, 0.01 mg/mL Herring testis DNA, 6.6 μM ATP, 0.1 mM GTP, 1.5 μg/mL of recombinant human cGAS (aa147-522) and serial dilutions of a test compound in DMSO was added to a 96-well plate and incubated at 37° C. for 20 minutes. At the end of reaction, 40 μL of KinaseGlo Max (Promega) was added and chemiluminescence was measured with a luminometer. Inhibitory effect of a compound is evaluated by plotting percentage of ATP consumption against logarithm of compound concentrations. IC50 value was calculated using GraphPad Prism 8 (GraphPad Software, Inc.).
# The letter codes for cGAS IC50 include: A (<2 μM); B (2-30 μM); C (>30 μM).
# T1 sequence (Q8N884 147-522): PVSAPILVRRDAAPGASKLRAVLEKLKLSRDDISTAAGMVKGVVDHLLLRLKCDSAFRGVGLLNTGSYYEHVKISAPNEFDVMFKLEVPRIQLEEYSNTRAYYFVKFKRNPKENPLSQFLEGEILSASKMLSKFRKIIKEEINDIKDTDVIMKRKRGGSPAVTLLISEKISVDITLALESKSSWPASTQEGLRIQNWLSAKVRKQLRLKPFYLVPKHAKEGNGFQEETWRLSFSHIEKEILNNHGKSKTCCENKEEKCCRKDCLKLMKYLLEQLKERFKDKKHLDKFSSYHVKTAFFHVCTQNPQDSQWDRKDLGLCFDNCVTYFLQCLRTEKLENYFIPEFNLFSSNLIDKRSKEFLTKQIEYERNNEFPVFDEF
row,IC50,Compound
1,< 2 µM,O=C(O)[C@H]1CCCN1c1cc(-n2ccnc2)c2ccc(Cl)c(Cl)c2n1 [I-374]
2,> 30 µM,Cc1cc(N2CCS(=O)(=O)CC2)c2ccc(Cl)c(Cl)c2n1 [I-303]
3,< 2 µM,CN(CCC(=O)NCCC(=O)O)c1cc(-c2cn[nH]c2)c2ccc(Cl)c(Cl)c2n1 [I-320]
4,> 30 µM,OCc1cn(-c2cc(-c3ccccc3)nc3cc(Cl)ccc23)cn1 [I-63]
5,< 2 µM,O=C(O)C1CN(c2cc(-c3cn[nH]c3)c3ccc(Cl)c(Cl)c3n2)CCO1 (stereo not shown) [I-369]
6,> 30 µM,"Clc1cccc2c(-n3ccnc3)ccnc12 [I-408, 8-chloro-4-(1H-imidazol-1-yl)quinoline]"
7,> 30 µM,O=S(=O)(NC1CCCN(c2cc(-n3ccnc3)c3ccc(Cl)cc3n2)C1)c1ccccc1 (stereo not shown) [I-107]
8,< 2 µM,OCCN(CCN1CCOCC1)c1cc(-c2cn[nH]c2)c2ccc(Cl)c(Cl)c2n1 [I-218]
9,< 2 µM,CN(CCC(=O)O)C(=O)C[C@@H]1CCCN1c1cc(-n2ccnc2)c2ccc(Cl)c(Cl)c2n1 [I-340]
10,> 30 µM,O=C1CN(c2cc(-n3ccnc3)c3ccc(Cl)c(Cl)c3n2)CC(C(=O)O)N1 (stereo not shown) [I-334]
11,< 2 µM,C[C@H](CS(N)(=O)=O)Nc1cc(-n2ccnc2)c2ccc(Cl)c(Cl)c2n1 [I-207]
12,> 30 µM,Brc1ccc2c(-n3cncn3)ccnc2c1 [I-418]
13,< 2 µM,COCCN(C)c1cc(-n2ccnc2)c2ccc(Cl)c(Cl)c2n1 [I-244]
14,> 30 µM,Cn1cc(S(=O)(=O)NC2CCCN(c3cc(-n4ccnc4)c4ccc(Cl)cc4n3)C2)cn1 (stereo not shown) [I-109]
15,< 2 µM,"O=[PH](O)OC1CCCN(c2cc(-n3ccnc3)c3ccc(Cl)c(Cl)c3n2)C1 (stereo not shown) [I-111, 1-(7,8-dichloro-4-(1H-imidazol-1-yl)quinolin-2-yl)piperidin-3-yl hydrogen phosphonate]"
16,> 30 µM,O=C(O)CNc1cc(-c2ccn[nH]2)nc2c(Cl)c(Cl)ccc12 [I-426]

# Same assay, conditions: Table 3, read-out: cGAS Inhibition Results IC50
row,IC50,Compound
1,< 2 µM,"O=C(O)CCOC[C@@H]1CCC(=O)N1c1cc(-n2ccnc2)c2ccc(Cl)c(Cl)c2n1 [I-812, (S)-3-((1-(7,8-dichloro-4-(1H-imidazol-1-yl)quinolin-2-yl)-5-oxopyrrolidin-2-yl)methoxy)propanoic acid]"
2,< 2 µM,O=C(O)CCS(=O)(=O)N[C@@H]1C[C@@H](C(=O)O)N(c2cc(-n3ccnc3)c3ccc(Cl)c(Cl)c3n2)C1 [I-512]
3,< 2 µM,O=C(O)CCOC[C@@H]1[C@@H]2C[C@@H]2CN1c1cc(-n2ccnc2)c2ccc(Cl)c(Cl)c2n1 (stereo in doubt) [I-809]
4,< 2 µM,"CN(CCN(Cc1cccc(C(=O)O)c1)S(C)(=O)=O)c1cc(-n2ccnc2)c2ccc(Cl)c(Cl)c2n1 [I-636, 3-((N-(2-((7,8-dichloro-4-(1H-imidazol-1-yl)quinolin-2-yl)(methyl)amino)ethyl)methylsulfonamido)methyl)benzoic acid]"
5,< 2 µM,N#C[C@@H]1CCCN1c1cc(-n2ccnc2)c2ccc(Cl)c(Cl)c2n1 [I-495]
6,2 to 30 µM,CN(CCN1C(=O)c2ccccc2S1(=O)=O)c1cc(-n2ccnc2)c2ccc(Cl)c(Cl)c2n1 [I-621]
7,> 30 µM,"O=C(O)CCOC[C@@H]1CCCN1c1cc(N2CC[C@@H](O)C2)c2ccc(Cl)c(Cl)c2n1 [I-821, 3-(((S)-1-(7,8-dichloro-4-((R)-3-hydroxypyrrolidin-1-yl)quinolin-2-yl)pyrrolidin-2-yl)methoxy)propanoic acid]"
8,< 2 µM,O=C(O)C1CCN(C(=O)[C@@H]2CCCN2c2cc(-n3ccnc3)c3ccc(Cl)c(Cl)c3n2)CC1 [I-548]
9,> 30 µM,C[C@]1(C(=O)O)CCCN1c1cc(-n2ccnc2)c2ccc(Cl)c(Cl)c2n1 [I-456]
10,< 2 µM,O=C(O)C1CN(C(=O)[C@@H]2CCCN2c2cc(-n3ccnc3)c3ccc(Cl)c(Cl)c3n2)CCO1 (stereo partly shown) [I-549]
11,2 to 30 µM,CN(CCNS(=O)(=O)c1cccc(C(=O)O)c1)c1cc(-n2ccnc2)c2ccc(Cl)c(Cl)c2n1 [I-623]
12,2 to 30 µM,CC(C)(C)OC(=O)[C@@H]1CCCN1c1cc(-n2ccnc2)c2ccc(Cl)c(Cl)c2n1 [I-644]

# From patent US11873291B2, “Quinoline cGAS antagonist compounds” (ImmuneSensor Therapeutics, Inc., priority 2020, dated 2024)
